Tests used:
[1] = biological target: Mitogen-activated protein kinase 11 (Homo sapiens) (UniProt Q15759); experiment: Inhibition of p38-beta2 (unknown origin) at 0.49 uM relative to control
[2] = biological target: Serine/threonine-protein kinase PAK 2 (Homo sapiens) (UniProt Q13177); experiment: Inhibition of PAK2 (unknown origin) at 0.49 uM relative to control
[3] = biological target: Ribosomal protein S6 kinase alpha-3 (Homo sapiens) (UniProt P51812); experiment: Inhibition of RSK2 (unknown origin) at 0.49 uM relative to control
[4] = biological target: Serine/threonine-protein kinase D3 (Homo sapiens) (UniProt O94806); experiment: Inhibition of PKD3 (unknown origin) at 0.49 uM relative to control
Sequence of Serine/threonine-protein kinase D3 (Homo sapiens) (O94806 whole entry): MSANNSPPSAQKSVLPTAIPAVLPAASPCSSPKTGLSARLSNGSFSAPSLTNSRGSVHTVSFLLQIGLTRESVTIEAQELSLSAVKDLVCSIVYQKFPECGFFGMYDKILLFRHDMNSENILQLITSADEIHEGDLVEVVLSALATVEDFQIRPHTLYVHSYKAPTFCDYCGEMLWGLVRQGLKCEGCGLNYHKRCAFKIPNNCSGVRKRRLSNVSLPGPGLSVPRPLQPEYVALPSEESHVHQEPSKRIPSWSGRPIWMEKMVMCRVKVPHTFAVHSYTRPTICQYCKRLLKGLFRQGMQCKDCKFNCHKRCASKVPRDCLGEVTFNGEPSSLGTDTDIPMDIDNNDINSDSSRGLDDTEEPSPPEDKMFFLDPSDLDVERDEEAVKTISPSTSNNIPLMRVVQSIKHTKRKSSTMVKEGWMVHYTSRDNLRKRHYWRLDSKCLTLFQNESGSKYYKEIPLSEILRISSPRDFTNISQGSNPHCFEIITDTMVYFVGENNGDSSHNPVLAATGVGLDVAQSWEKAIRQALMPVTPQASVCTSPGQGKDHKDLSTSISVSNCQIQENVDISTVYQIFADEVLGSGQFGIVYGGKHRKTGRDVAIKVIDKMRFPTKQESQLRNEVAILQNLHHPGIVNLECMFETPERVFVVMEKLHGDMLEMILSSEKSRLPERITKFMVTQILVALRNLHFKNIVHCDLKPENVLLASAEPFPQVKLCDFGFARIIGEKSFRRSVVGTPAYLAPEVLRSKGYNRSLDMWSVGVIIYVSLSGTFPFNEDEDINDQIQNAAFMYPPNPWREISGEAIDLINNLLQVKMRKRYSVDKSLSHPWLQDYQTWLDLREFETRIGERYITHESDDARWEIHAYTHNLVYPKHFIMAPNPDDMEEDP

[5] = biological target: Calcium/calmodulin-dependent protein kinase type 1 (Homo sapiens) (UniProt Q14012); experiment: Inhibition of CaMK1a (unknown origin) at 0.49 uM relative to control
[6] = biological target: Tyrosine-protein kinase Lyn (Homo sapiens) (UniProt P07948); experiment: Inhibition of LYNB (unknown origin) at 0.49 uM relative to control
[7] = biological target: T1, Aurora kinase A (Homo sapiens) (UniProt O14965); experiment: Inhibition of AurA (unknown origin) at 0.49 uM relative to control
T1 sequence (whole entry): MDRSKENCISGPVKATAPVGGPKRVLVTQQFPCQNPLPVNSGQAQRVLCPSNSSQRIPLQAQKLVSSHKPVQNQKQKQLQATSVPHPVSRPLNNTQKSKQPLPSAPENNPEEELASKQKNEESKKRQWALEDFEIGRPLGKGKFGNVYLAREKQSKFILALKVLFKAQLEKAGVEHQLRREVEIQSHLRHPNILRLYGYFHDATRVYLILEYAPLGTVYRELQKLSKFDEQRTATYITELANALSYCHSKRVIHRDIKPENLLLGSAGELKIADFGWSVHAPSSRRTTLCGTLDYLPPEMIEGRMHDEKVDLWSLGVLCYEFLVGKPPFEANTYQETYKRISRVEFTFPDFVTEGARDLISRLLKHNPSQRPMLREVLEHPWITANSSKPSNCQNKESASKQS

[8] = biological target: Interleukin-1 receptor-associated kinase 1 (Homo sapiens) (UniProt P51617); experiment: Inhibition of IRAK1 (unknown origin) at 0.49 uM relative to control
Sequence of Interleukin-1 receptor-associated kinase 1 (Homo sapiens) (P51617 whole entry, looked up): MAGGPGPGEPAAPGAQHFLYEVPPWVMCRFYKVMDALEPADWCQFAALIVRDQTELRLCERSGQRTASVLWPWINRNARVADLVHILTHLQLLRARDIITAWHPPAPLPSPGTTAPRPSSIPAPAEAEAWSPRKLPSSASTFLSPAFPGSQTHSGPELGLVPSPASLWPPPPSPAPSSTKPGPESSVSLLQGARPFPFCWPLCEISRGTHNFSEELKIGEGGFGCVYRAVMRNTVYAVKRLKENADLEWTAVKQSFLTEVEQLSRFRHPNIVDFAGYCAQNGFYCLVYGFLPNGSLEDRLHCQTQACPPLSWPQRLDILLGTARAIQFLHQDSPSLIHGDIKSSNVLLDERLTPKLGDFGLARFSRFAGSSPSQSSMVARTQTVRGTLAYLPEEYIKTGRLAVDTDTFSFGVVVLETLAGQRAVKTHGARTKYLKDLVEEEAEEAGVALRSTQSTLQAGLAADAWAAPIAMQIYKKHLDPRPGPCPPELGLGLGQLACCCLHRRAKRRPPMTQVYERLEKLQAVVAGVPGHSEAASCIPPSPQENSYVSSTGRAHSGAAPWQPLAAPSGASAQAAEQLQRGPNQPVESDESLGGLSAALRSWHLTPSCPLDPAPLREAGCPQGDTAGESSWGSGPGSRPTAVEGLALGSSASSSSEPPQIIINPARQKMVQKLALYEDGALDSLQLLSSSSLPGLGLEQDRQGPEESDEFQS

[9] = biological target: Mitogen-activated protein kinase 13 (Homo sapiens) (UniProt O15264); experiment: Inhibition of p38-delta (unknown origin) at 0.49 uM relative to control
Sequence of Mitogen-activated protein kinase 13 (Homo sapiens) (O15264 whole entry): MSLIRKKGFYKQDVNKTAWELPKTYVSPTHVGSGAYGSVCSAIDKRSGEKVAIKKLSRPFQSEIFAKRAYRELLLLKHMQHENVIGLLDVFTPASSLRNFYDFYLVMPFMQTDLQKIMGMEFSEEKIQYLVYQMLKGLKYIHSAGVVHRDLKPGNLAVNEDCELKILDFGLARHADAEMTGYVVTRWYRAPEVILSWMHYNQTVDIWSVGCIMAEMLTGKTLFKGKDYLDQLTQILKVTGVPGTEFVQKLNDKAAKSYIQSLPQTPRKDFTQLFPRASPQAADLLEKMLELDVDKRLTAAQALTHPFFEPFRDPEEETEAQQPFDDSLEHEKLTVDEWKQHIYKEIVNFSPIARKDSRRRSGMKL

[10] = biological target: Dual specificity tyrosine-phosphorylation-regulated kinase 1B (Homo sapiens) (UniProt Q9Y463); experiment: Inhibition of DYRK1B (unknown origin) at 0.49 uM relative to control
[11] = biological target: Dual specificity tyrosine-phosphorylation-regulated kinase 4 (Homo sapiens) (UniProt Q9NR20); experiment: Inhibition of DYRK4 (unknown origin) at 0.49 uM relative to control
[12] = biological target: Testis-specific serine/threonine-protein kinase 2 (Homo sapiens) (UniProt Q96PF2); experiment: Inhibition of TSSK2 (unknown origin) at 0.49 uM relative to control
Sequence of Testis-specific serine/threonine-protein kinase 2 (Homo sapiens) (Q96PF2 whole entry): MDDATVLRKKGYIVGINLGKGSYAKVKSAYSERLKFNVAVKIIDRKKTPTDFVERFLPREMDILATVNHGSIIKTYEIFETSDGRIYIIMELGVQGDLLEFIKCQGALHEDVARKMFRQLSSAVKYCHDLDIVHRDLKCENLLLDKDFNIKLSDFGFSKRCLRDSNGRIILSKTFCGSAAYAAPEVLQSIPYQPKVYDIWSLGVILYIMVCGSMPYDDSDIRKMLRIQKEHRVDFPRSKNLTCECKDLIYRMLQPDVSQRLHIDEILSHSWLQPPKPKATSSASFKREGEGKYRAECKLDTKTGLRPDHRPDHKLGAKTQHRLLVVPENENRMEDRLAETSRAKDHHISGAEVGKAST

[13] = biological target: Calcium/calmodulin-dependent protein kinase type II subunit alpha (Homo sapiens) (UniProt Q9UQM7); experiment: Inhibition of CaMK2a (unknown origin) at 0.49 uM relative to control
[14] = biological target: Serine/threonine-protein kinase PAK 3 (Homo sapiens) (UniProt O75914); experiment: Inhibition of PAK3 (unknown origin) at 0.45 uM relative to control
Sequence of Serine/threonine-protein kinase PAK 3 (Homo sapiens) (O75914 whole entry, looked up): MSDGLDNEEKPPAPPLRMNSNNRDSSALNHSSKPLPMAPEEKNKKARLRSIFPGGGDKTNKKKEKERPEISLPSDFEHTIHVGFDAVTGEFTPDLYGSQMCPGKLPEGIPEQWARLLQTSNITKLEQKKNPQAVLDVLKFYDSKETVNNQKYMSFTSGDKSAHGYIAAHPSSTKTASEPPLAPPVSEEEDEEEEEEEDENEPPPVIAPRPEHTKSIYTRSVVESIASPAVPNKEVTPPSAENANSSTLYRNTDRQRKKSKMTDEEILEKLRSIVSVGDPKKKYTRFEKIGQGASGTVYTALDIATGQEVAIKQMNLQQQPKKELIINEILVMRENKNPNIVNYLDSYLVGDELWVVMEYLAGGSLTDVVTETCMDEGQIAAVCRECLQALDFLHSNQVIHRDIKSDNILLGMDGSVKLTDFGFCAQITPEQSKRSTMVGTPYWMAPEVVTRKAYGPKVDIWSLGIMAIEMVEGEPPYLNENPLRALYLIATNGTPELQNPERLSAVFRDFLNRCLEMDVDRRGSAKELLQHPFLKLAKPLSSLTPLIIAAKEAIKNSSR

[15] = biological target: Serine/threonine-protein kinase BRSK2 (Homo sapiens) (UniProt Q8IWQ3); experiment: Inhibition of BRSK2 (unknown origin) at 0.45 uM relative to control
[16] = biological target: Cyclin-dependent kinase 1/cyclin B1 (Homo sapiens) (UniProt P06493+P14635); experiment: Inhibition of CDK1/CyclinB (unknown origin) at 0.45 uM relative to control; assay type: protein-complex assay
[17] = biological target: Serine/threonine-protein kinase pim-3 (Homo sapiens) (UniProt Q86V86); experiment: Inhibition of PIM3 (unknown origin) at 0.45 uM relative to control
[18] = biological target: Serine/threonine-protein kinase Nek9 (Homo sapiens) (UniProt Q8TD19); experiment: Inhibition of NEK9 (unknown origin) at 0.45 uM relative to control
[19] = biological target: Protein kinase C epsilon type (Homo sapiens) (UniProt Q02156); experiment: Inhibition of PKC-epsilon (unknown origin) at 0.45 uM relative to control
[20] = system: Platelet-derived growth factor receptor alpha (Homo sapiens), P16234 [D842V]; experiment: Inhibition of PDGFRA D842V mutant (unknown origin) at 0.45 uM relative to control
[21] = biological target: Mitogen-activated protein kinase kinase kinase kinase 4 (Homo sapiens) (UniProt O95819); experiment: Inhibition of HGK (unknown origin) at 0.45 uM relative to control
Sequence of Mitogen-activated protein kinase kinase kinase kinase 4 (Homo sapiens) (O95819 2-1239 limits assumed): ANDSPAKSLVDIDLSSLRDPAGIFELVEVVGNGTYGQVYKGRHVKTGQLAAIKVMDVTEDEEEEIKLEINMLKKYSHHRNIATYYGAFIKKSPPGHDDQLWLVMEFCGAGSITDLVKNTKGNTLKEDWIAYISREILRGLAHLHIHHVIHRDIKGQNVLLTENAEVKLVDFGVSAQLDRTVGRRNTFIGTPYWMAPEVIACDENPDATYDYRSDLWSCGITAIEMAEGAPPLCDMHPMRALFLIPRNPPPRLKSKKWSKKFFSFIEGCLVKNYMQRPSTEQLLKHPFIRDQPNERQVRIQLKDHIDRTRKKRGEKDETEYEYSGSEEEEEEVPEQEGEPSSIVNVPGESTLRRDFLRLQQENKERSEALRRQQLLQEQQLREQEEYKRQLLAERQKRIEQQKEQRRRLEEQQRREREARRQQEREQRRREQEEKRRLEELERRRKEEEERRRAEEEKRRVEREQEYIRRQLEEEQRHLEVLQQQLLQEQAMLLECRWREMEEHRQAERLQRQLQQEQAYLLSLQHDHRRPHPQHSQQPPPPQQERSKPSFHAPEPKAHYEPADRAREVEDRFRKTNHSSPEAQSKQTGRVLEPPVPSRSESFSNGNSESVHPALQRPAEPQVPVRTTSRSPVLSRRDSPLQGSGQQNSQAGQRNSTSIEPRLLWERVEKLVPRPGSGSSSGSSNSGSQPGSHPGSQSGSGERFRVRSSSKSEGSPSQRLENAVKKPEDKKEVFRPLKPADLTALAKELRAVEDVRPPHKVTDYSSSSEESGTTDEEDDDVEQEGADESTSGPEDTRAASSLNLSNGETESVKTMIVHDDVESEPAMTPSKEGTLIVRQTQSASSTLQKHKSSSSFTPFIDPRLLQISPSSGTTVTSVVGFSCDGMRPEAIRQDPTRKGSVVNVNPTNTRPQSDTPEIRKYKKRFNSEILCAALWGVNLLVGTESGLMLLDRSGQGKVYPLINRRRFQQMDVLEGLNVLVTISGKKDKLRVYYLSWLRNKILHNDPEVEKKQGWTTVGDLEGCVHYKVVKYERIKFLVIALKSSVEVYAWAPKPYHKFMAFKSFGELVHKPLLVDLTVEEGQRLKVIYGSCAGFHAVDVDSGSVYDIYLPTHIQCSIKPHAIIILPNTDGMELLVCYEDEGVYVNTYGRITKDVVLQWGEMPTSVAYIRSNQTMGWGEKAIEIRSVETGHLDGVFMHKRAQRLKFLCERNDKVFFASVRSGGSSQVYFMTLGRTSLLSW

[22] = biological target: Ribosomal protein S6 kinase alpha-1 (Homo sapiens) (UniProt Q15418); experiment: Inhibition of RSK1 (unknown origin) at 0.45 uM relative to control
[23] = system: Epidermal growth factor receptor (Homo sapiens), P00533 [L858R,T790M]; experiment: Inhibition of EGFR T790M/L858R double mutant (unknown origin) at 0.45 uM relative to control
[24] = biological target: T2, Calcium/calmodulin-dependent protein kinase type IV (Homo sapiens) (UniProt Q16566); experiment: Inhibition of CAMK4 (unknown origin) at 0.45 uM relative to control
T2 sequence (whole entry): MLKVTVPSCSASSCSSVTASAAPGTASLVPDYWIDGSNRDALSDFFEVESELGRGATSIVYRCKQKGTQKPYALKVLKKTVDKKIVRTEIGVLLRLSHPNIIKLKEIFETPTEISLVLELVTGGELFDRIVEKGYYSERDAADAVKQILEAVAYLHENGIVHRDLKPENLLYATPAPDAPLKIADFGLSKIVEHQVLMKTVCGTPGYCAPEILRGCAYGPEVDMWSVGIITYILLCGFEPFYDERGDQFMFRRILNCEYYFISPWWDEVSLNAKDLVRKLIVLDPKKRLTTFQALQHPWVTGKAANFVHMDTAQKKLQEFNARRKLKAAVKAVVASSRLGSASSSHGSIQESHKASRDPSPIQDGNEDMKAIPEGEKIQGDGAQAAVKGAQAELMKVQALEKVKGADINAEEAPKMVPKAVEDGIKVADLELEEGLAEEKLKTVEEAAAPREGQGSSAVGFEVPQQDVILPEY

[25] = biological target: Tyrosine-protein kinase FRK (Homo sapiens) (UniProt P42685); experiment: Inhibition of FRK (unknown origin) at 0.45 uM relative to control
Sequence of Tyrosine-protein kinase FRK (Homo sapiens) (P42685 whole entry): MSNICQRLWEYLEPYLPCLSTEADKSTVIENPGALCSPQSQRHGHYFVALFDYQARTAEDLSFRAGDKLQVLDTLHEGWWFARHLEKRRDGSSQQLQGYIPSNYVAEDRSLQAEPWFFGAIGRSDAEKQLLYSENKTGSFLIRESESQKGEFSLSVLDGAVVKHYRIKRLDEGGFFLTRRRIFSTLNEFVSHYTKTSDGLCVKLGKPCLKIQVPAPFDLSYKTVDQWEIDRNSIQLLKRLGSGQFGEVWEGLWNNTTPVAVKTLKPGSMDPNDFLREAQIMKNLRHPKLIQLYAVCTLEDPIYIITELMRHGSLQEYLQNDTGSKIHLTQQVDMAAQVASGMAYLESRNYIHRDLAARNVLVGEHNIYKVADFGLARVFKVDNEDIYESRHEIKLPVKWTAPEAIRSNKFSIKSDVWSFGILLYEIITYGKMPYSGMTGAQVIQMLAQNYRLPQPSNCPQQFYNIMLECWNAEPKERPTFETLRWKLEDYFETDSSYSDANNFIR

[26] = system: Tyrosine-protein kinase ABL1 (Homo sapiens), P00519 [Q252H]; experiment: Inhibition of Abl Q252H mutant (unknown origin) at 0.45 uM relative to control
[27] = biological target: Serine/threonine-protein kinase Chk2 (Homo sapiens) (UniProt O96017); experiment: Inhibition of CHK2 (unknown origin) at 0.078 uM relative to control
[28] = biological target: T1, Aurora kinase A (Homo sapiens); experiment: Inhibition of AurA (unknown origin) at 0.078 uM relative to control

Compound `Cc1[nH]nc(C2CC2)c1-c1ccc2c(NC(=O)C3CC3)noc2c1` has an inhibition [1] of 0.7%, an inhibition [2] of -0.3% and an inhibition [3] of -2%. The inhibition [4] was -4.3%, the inhibition [5] was 2.3% and the inhibition [6] was 3%. The inhibition [7] was 5.7%, the inhibition [8] was 6.7% and the inhibition [9] was 4.3%. For the same compound, the inhibition [10] was 2%, the inhibition [11] was 1.3% and the inhibition [12] was 2%. For the same compound, the inhibition [13] was 1.3%.

In the case of `Cc1n[nH]c(C)c1-c1ccc2c(NC(=O)c3ccc(N4CCN(C)CC4)cc3)n[nH]c2c1`, the inhibition [14] is reported as 3.7%, the inhibition [15] is reported as 13.3% and the inhibition [16] is reported as 5.3%. For the same compound, the inhibition [17] was -2.3%, the inhibition [18] was 1.7% and the inhibition [19] was 9%. It also gave an inhibition [20] of 79.3%, an inhibition [21] of 73.3% and an inhibition [22] of 27.3%. It also gave an inhibition [23] of 1.3%, an inhibition [24] of 0% and an inhibition [25] of 31.3%. The inhibition [26] was 72%.

Compound `COC(=O)Nc1noc2cc(-c3c(-c4ccccn4)n[nH]c3C)ccc12` has an inhibition [27] of 0.7% and an inhibition [28] of -1.7%.
